Assays:
Rattus norvegicus [1] = species on record: Rattus norvegicus; assay: Concentration inhibiting norepinephrine uptake in rat brain synaptosomes.; format: functional
Rattus norvegicus [2] = species on record: Rattus norvegicus; assay: Concentration inhibiting serotonin uptake in rat brain synaptosomes.; format: functional
[3] = target: T1, Sodium-dependent dopamine transporter (Homo sapiens, UniProt Q01959); assay: In vitro binding affinity against Dopamine transporter in LLC-PK1 cell membranes.; format: cell-based, Sus scrofa
T1 sequence (Q01959 whole entry): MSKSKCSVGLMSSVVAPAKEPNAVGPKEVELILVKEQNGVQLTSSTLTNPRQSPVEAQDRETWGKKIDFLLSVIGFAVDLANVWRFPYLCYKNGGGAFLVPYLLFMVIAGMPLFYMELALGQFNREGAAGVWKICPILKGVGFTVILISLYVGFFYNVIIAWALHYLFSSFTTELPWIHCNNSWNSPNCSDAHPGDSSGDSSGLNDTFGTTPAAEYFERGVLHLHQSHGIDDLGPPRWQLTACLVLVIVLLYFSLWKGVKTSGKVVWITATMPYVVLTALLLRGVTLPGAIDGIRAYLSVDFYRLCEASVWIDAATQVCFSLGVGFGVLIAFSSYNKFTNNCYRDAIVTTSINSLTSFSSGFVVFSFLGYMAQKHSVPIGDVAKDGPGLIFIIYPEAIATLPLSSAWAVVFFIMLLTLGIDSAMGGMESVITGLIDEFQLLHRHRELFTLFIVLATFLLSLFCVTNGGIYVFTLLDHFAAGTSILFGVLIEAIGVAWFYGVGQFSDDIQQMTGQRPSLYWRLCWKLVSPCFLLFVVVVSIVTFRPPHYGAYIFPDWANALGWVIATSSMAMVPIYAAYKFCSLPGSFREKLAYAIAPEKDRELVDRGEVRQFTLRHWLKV

[4] = target: Sodium-dependent serotonin transporter (Homo sapiens, UniProt P31645); assay: In vitro binding affinity against Serotonin transporter (SERT) from LLC-PK1 cell membranes.; format: cell-based, Sus scrofa
Sodium-dependent serotonin transporter, sequence (P31645 whole entry): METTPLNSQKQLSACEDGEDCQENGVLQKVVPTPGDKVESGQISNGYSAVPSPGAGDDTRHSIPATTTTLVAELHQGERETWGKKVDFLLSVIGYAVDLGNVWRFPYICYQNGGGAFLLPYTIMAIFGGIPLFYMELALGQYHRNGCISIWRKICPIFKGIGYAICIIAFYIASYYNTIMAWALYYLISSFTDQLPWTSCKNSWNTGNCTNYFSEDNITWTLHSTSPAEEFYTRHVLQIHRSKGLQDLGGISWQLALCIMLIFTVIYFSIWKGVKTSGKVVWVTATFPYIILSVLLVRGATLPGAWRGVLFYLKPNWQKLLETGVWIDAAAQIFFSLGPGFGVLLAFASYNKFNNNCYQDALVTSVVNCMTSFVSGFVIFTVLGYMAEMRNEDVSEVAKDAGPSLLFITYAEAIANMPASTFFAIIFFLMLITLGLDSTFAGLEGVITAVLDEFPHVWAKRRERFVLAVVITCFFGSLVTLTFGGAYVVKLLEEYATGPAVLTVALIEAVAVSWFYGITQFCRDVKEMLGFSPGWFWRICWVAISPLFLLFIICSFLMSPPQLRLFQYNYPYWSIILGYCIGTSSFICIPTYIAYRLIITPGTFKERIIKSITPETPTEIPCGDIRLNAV

[5] = target: T1, Sodium-dependent dopamine transporter; assay: Concentration inhibiting Dopamine transporter
Rattus norvegicus [6] = species on record: Rattus norvegicus; assay: Concentration inhibiting 5-HT reuptake in rat brain synaptosomes.; format: functional

Ki (Rattus norvegicus [1])	Ki (Rattus norvegicus [2])	Ki [3]	Ki [4]	Ki [5]	Ki (Rattus norvegicus [6])	Compound
55 nM	2.1 nM	–	–	–	–	CN(C)Cc1ccccc1Sc1ccc(Cl)cc1CO
–	–	> 10000 nM	0.097 nM	–	–	CN(C)Cc1ccccc1Sc1ccc(I)cc1CO
–	–	> 10000 nM	0.52 nM	–	–	CN(C)Cc1ccccc1Sc1ccc(Br)cc1CO
–	–	112 nM	–	23.5 nM	0.4 nM	CSc1ccc([C@H]2CN3CCC[C@H]3c3ccccc32)cc1
